Experimental findings from patent US8030500B2, “Substituted isoindoles for the treatment and/or prevention of Aβ- related pathologies” (AstraZeneca AB, priority 2008, dated 2011) are described below.

The structures appear in SMILES notation. Where a name gives a salt, the structure may show the parent alone.

The target of the first assay is T1, human β-Secretase (Homo sapiens, UniProt P56817).
T1 construct: soluble part of the human β-Secretase (AA 1-AA 460); Fc domain of IgG1; made in house
T1 sequence (P56817 22-460): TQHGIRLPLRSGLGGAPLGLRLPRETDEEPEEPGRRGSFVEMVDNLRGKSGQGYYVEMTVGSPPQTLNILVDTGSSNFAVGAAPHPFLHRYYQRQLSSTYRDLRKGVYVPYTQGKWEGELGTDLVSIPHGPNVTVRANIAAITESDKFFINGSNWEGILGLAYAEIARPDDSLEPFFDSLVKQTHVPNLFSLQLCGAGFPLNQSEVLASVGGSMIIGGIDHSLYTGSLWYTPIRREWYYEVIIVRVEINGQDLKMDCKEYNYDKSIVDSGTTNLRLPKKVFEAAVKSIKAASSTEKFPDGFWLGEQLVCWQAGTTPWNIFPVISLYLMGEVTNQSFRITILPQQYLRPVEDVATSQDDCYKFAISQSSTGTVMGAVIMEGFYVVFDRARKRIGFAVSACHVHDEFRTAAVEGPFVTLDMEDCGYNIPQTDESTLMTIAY
As to the kind of experiment: TR-FRET assay (β-secretase enzyme, sBACE-Fc). The class given is biochemical. The settings on record: soluble human β-secretase (sBACE-Fc), substrate (Europium)[…](Qsy7) 100 nM, pH4.5; read-out: IC50 in TR-FRET assay. As for the experimental part: The β-secretase enzyme used in the TR-FRET is prepared as follows:
The cDNA for the soluble part of the human β-Secretase (AA 1-AA 460) was cloned using the ASP2-Fc10-1-IRES-GFP-neoK mammalian expression vector. The gene was fused to the Fc domain of IgG1 (affinity tag) and stably cloned into HEK 293 cells.
The robotic systems Biomek FX and Velocity 11 were used for all liquid handling and the enzyme and substrate solutions were kept on ice until they were placed in the robotic system. Enzyme (9 μl) was added to the plate then 1 μl of compound in dimethylsulphoxide was added, mixed and pre-incubated for 10 minutes. Substrate (10 μl) was then added, mixed and the reaction proceeded for 15 minutes at room temperature. The reaction was stopped with the addition of Stop solution (7 μl, NaAcetate, pH 9). […] The dimethylsulphoxide control, instead of test compound, defined the 100% activity level and 0% activity was defined by wells lacking enzyme (replaced with reaction buffer).
For orientation: In TR-FRET formats the signal depends on donor and acceptor labels being close together.
As to `Cc1cc(C2(c3cc(-c4cncnc4)ccc3F)N=C(N)c3c(F)cccc32)ccn1` (centres unmarked) [Example 1, 4-Fluoro-1-(2-fluoro-5-(pyrimidin-5-yl)phenyl)-1-(2-methylpyridin-4-yl)-1H-isoindol-3-amine], the IC50 came out at 1600 nM.

Take `Cc1cc(C2(c3cc(-c4cncc(C#N)c4)ccc3F)N=C(N)c3c(F)cccc32)ccn1` (centres unmarked) [Example 3, 5-(3-(3-Amino-4-fluoro-1-(2-methylpyridin-4-yl)-1H-isoindol-1-yl)-4-fluorophenyl)nicotinonitrile]: the IC50 is 1800 nM.

As for `Cc1cc(C2(c3cc(-c4cncc(F)c4)ccc3F)N=C(N)c3c(F)cccc32)ccn1` (centres unmarked) [Example 4, 4-Fluoro-1-(2-fluoro-5-(5-fluoropyridin-3-yl)phenyl)-1-(2-methylpyridin-4-yl)-1H-isoindol-3-amine], the half-maximal inhibitory concentration (IC50) was determined as 1600 nM.

In the case of `Cc1cc(C2(c3cc(-c4cccnc4)ccc3F)N=C(N)c3c(F)cccc32)ccn1` (centres unmarked) [Example 5, 4-Fluoro-1-(2-fluoro-5-(pyridin-3-yl)phenyl)-1-(2-methylpyridin-4-yl)-1H-isoindol-3-amine], the 50% inhibitory concentration (IC50) was determined as 1700 nM.

In the case of `NC1=NC(c2ccnc(C(F)(F)F)c2)(c2cc(-c3cncnc3)ccc2F)c2cccc(F)c21` (centres unmarked) [Example 6, 4-Fluoro-1-(2-fluoro-5-(pyrimidin-5-yl)phenyl)-1-(2-(trifluoromethyl)pyridin-4-yl)-1H-isoindol-3-amine], the IC50 came to 1100 nM.

Consider `N#Cc1cncc(-c2ccc(F)c(C3(c4ccnc(C(F)(F)F)c4)N=C(N)c4c(F)cccc43)c2)c1` (centres unmarked) [Example 7, 5-(3-(3-Amino-4-fluoro-1-(2-(trifluoromethyl)pyridin-4-yl)-1H-isoindol-1-yl)-4-fluorophenyl)nicotinonitrile], for which the concentration for half-maximal inhibition (IC50) was found to be 2000 nM.

For `CS(=O)(=O)c1cncc(-c2ccc(F)c(C3(c4ccnc(C(F)(F)F)c4)N=C(N)c4c(F)cccc43)c2)c1` (centres unmarked) [Example 8, 4-Fluoro-1-(2-fluoro-5-(5-(methylsulfonyl)pyridin-3-yl)phenyl)-1-(2-(trifluoromethyl)pyridin-4-yl)-1H-isoindol-3-amine], the IC50 is 12000 nM.

`NC1=NC(c2ccncc2)(c2cccc(-c3cccc(Cl)c3)c2)c2cccc(F)c21` (centres unmarked) [Example 9, 1-(3′-Chlorobiphenyl-3-yl)-4-fluoro-1-(pyridin-4-yl)-1H-isoindol-3-amine]: the IC50 was 75 nM.

As for `NC1=NC(c2ccncc2)(c2cccc(-c3cncnc3)c2)c2cccc(F)c21` (centres unmarked) [Example 10, 4-Fluoro-1-(pyridin-4-yl)-1-(3-(pyrimidin-5-yl)phenyl)-1H-isoindol-3-amine], the IC50 came out at 160 nM.

For the molecule `COc1cccc(-c2cccc(C3(c4ccncc4)N=C(N)c4c(F)cccc43)c2)c1F` (centres unmarked) [Example 14, 4-Fluoro-1-(2′-fluoro-3′-methoxybiphenyl-3-yl)-1-(pyridin-4-yl)-1H-isoindol-3-amine], the half-inhibitory concentration (IC50) is 95 nM.

In the case of `NC1=NC(c2ccncc2)(c2cccc(-c3cncc(F)c3)c2)c2cccc(F)c21` (centres unmarked) [Example 15, 4-Fluoro-1-(3-(5-fluoropyridin-3-yl)phenyl)-1-(pyridin-4-yl)-1H-isoindol-3-amine], the half-maximal inhibitory concentration (IC50) is 140 nM.

For the molecule `NC1=NC(c2ccncc2)(c2ccc(F)c(-c3cncnc3)c2)c2cccc(F)c21` (centres unmarked) [Example 16, 4-Fluoro-1-(4-fluoro-3-(pyrimidin-5-yl)phenyl)-1-(pyridin-4-yl)-1H-isoindol-3-amine], the IC50 came to 320 nM.

On to `COc1ccc(C2(c3cccc(-c4cncnc4)c3)N=C(N)c3c(F)cccc32)cc1` (centres unmarked) [Example 17, 4-Fluoro-1-(4-methoxyphenyl)-1-(3-(pyrimidin-5-yl)phenyl)-1H-isoindol-3-amine], for which the 50% inhibitory concentration (IC50) worked out at 110 nM.

Take `COc1cccc(-c2cc(C3(c4cncnc4)N=C(N)c4c(F)cccc43)ccc2F)c1F` (centres unmarked) [Example 18, 1-(2′,6-Difluoro-3′-methoxybiphenyl-3-yl)-4-fluoro-1-(pyrimidin-5-yl)-1H-isoindol-3-amine]: the IC50 turned out to be 3400 nM.

With `COc1ccnc(-c2cc(C3(c4cncnc4)N=C(N)c4c(F)cccc43)ccc2F)c1` (centres unmarked) [Example 19, 4-Fluoro-1-(4-fluoro-3-(4-methoxypyridin-2-yl)phenyl)-1-(pyrimidin-5-yl)-1H-isoindol-3-amine], the half-inhibitory concentration (IC50) came out at 4100 nM.

In the case of `NC1=NC(c2cccc(-c3cncnc3)c2)(c2ccnc(C(F)(F)F)c2)c2cccc(F)c21` (centres unmarked) [Example 20, 4-Fluoro-1-(3-(pyrimidin-5-yl)phenyl)-1-(2-(trifluoromethyl)pyridin-4-yl)-1H-isoindol-3-amine], the IC50 worked out at 240 nM.

Turning to `Cc1cc(C2(c3cccc(-c4cncnc4)c3)N=C(N)c3c(F)cccc32)cc(C)n1` (centres unmarked) [Example 21, 1-(2,6-Dimethylpyridin-4-yl)-4-fluoro-1-(3-(pyrimidin-5-yl)phenyl)-1H-isoindol-3-amine], the concentration for half-maximal inhibition (IC50) was determined as 1100 nM.

Take `Cc1cc(C2(c3cccc(-c4cncc(C#N)c4)c3)N=C(N)c3c(F)cccc32)cc(C)n1` (centres unmarked) [Example 22, 5-(3-(3-Amino-1-(2,6-dimethylpyridin-4-yl)-4-fluoro-1H-isoindol-1 yl)phenyl)nicotinonitrile]: the IC50 is 870 nM.

As for `N#Cc1cncc(-c2cccc(C3(c4ccnc(C(F)(F)F)c4)N=C(N)c4c(F)cccc43)c2)c1` (centres unmarked) [Example 23, 5-(3-(3-Amino-4-fluoro-1-(2-(trifluoromethyl)pyridin-4-yl)-1H-isoindol-1-yl)phenyl)nicotinonitrile], the IC50 stood at 250 nM.

As for `COc1cc(C2(c3ccc(F)c(-c4cncnc4)c3)N=C(N)c3c(F)cccc32)ccn1` (centres unmarked) [Example 24, 4-Fluoro-1-(4-fluoro-3-(pyrimidin-5-yl)phenyl)-1-(2-methoxypyridin-4-yl)-1H-isoindol-3-amine], the IC50 stood at 280 nM.

For the molecule `N#Cc1cncc(-c2cc(C3(c4ccnc(C(F)(F)F)c4)N=C(N)c4c(F)cccc43)ccc2F)c1` (centres unmarked) [Example 25, 5-(5-(3-Amino-4-fluoro-1-(2-(trifluoromethyl)pyridin-4-yl)-1H-isoindol-1-yl)-2-fluorophenyl) nicotinonitrile trifluoroacetate], the IC50 was 370 nM.

In the case of `N#Cc1cncc(-c2cc(C3(c4ccncc4)N=C(N)c4c(F)cccc43)ccc2F)c1` (centres unmarked) [Example 26, 5-(5-(3-Amino-4-fluoro-1-(pyridin-4-yl)-1H-isoindol-1-yl)-2-fluorophenyl) nicotinonitrile], the half-maximal inhibitory concentration (IC50) was 460 nM.

`COc1cc(C2(c3cccc(-c4cncnc4)c3)N=C(N)c3c(F)cccc32)ccn1` (centres unmarked) [Example 27, 4-Fluoro-1-(2-methoxypyridin-4-yl)-1-(3-(pyrimidin-5-yl)phenyl)-1H-isoindol-3-amine]: the IC50 is 400 nM.

Turning to `COc1cc(C2(c3cccc(-c4cncc(C#N)c4)c3)N=C(N)c3c(F)cccc32)ccn1` (centres unmarked) [Example 28, 5-(3-(3-Amino-4-fluoro-1-(2-methoxypyridin-4-yl)-1H-isoindol-1-yl)phenyl)nicotinonitrile acetate], the IC50 is 470 nM.

As for `COc1cc(C2(c3cccc(-c4cnccn4)c3)N=C(N)c3c(F)cccc32)ccn1` (centres unmarked) [Example 29, 4-Fluoro-1-(2-methoxypyridin-4-yl)-1-(3-(pyrazin-2-yl)phenyl)-1H-isoindol-3-amine acetate], the IC50 was found to be 200 nM.

In the case of `NC1=NC(c2cccc(-c3cnccn3)c2)(c2ccnc(C(F)(F)F)c2)c2cccc(F)c21` (centres unmarked) [Example 30, 4-Fluoro-1-(3-(pyrazin-2-yl)phenyl)-1-(2-(trifluoromethyl)pyridin-4-yl)-1H-isoindol-3-amine], the half-maximal inhibitory concentration (IC50) was 320 nM.

For `Cc1cc(C2(c3cccc(-c4cncnc4)c3)N=C(N)c3c(F)cccc32)cc(C(F)F)n1` (centres unmarked) [Example 32, 1-(2-(Difluoromethyl)-6-methylpyridin-4-yl)-4-fluoro-1-(3-(pyrimidin-5-yl)phenyl)-1H-isoindol-3-amine], the IC50 worked out at 90 nM.

For `Cc1cc(C2(c3ccnc(-c4cncnc4)c3)N=C(N)c3c(F)cccc32)cc(C(F)F)n1` (centres unmarked) [Example 33, 1-(2-(Difluoromethyl)-6-methylpyridin-4-yl)-4-fluoro-1-(2-(pyrimidin-5-yl)pyridin-4-yl)-1H-isoindol-3-amine], the half-inhibitory concentration (IC50) was 730 nM.

Consider `COc1c(C)cc(C2(c3ccnc(-c4cncnc4)c3)N=C(N)c3c(F)cccc32)cc1F` (centres unmarked) [Example 34, 4-Fluoro-1-(3-fluoro-4-methoxy-5-methylphenyl)-1-(2-(pyrimidin-5-yl)pyridin-4-yl)-1H-isoindol-3-amine], for which the IC50 came to 81 nM.

With `COc1c(C)cc(C2(c3ccnc(-c4cncnc4)c3)N=C(N)c3c(F)cccc32)cc1C` (centres unmarked) [Example 35, 4-Fluoro-1-(4-methoxy-3,5-dimethylphenyl)-1-(2-(pyrimidin-5-yl)pyridin-4-yl)-1H-isoindol-3-amine], the IC50 was found to be 35 nM.

In the case of `COc1c(C)cc(C2(c3ccnc(-c4cncnc4)c3)N=C(N)c3c(F)cccc32)nc1C` (centres unmarked) [Example 36, 4-Fluoro-1-(5-methoxy-4,6-dimethylpyridin-2-yl)-1-(2-(pyrimidin-5-yl)pyridin-4-yl)-1H-isoindol-3-amine], the IC50 amounted to 490 nM.

The assay is the same for the next values; noted with them: stated in the text of the example; read-out: IC50 in the FRET assay.
`Cc1cc(C2(c3cc(-c4cncc(S(C)(=O)=O)c4)ccc3F)N=C(N)c3c(F)cccc32)ccn1` (centres unmarked) [Example 2, 4-Fluoro-1-(2-fluoro-5-(5-(methylsulfonyl)pyridin-3-yl)phenyl)-1-(2-methylpyridin-4-yl)-1H-isoindol-3-amine]: the IC50 was determined as 27000 nM.

What is called IC50 is the midpoint of a concentration-inhibition curve.
